In test [1] the target is T1, Fatty-acid amide hydrolase 1 (Mus musculus, UniProt O08914).
T1 sequence (O08914 whole entry): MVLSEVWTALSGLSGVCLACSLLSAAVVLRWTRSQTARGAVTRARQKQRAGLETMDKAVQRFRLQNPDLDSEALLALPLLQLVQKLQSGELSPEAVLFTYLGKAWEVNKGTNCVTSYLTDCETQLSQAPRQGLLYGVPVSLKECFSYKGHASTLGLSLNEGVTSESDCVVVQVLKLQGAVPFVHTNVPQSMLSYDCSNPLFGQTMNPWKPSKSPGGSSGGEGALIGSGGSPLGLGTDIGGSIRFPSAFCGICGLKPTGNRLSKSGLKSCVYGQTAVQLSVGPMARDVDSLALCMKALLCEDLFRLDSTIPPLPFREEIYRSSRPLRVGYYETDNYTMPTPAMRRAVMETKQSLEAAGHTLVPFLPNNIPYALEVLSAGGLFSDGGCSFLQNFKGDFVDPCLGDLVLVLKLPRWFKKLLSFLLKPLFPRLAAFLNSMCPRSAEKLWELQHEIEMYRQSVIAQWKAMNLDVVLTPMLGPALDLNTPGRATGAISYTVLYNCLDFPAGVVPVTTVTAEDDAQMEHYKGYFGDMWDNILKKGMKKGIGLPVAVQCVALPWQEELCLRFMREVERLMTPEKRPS
Description: Inhibitory potency of Fatty-acid amide hydrolase with Mouse brain membrane.

The target of test [2] is T1, Fatty-acid amide hydrolase 1. The experiment in a line: Inhibitory potency of Fatty-acid amide hydrolase with Mouse brain membrane in the presence of PMSF.
Test [3] concerns the target Cannabinoid receptor 1 (Mus musculus, UniProt P47746). Description: Binding affinity towards Cannabinoid receptor 1 was determined using [3H]-CP- cannabinoid as radioligand with mouse brain membrane in the presence of PMSF.
Test [4] addresses Cannabinoid receptor 1 (Rattus norvegicus, UniProt P20272). The experiment in a line: Binding affinity towards Cannabinoid receptor 1 was determined using [3H]-CP- cannabinoid as radioligand with rat brain membrane.
Test [5] has as its target T2, Fatty-acid amide hydrolase 1 (Rattus norvegicus, UniProt P97612).
T2 sequence (P97612 whole entry): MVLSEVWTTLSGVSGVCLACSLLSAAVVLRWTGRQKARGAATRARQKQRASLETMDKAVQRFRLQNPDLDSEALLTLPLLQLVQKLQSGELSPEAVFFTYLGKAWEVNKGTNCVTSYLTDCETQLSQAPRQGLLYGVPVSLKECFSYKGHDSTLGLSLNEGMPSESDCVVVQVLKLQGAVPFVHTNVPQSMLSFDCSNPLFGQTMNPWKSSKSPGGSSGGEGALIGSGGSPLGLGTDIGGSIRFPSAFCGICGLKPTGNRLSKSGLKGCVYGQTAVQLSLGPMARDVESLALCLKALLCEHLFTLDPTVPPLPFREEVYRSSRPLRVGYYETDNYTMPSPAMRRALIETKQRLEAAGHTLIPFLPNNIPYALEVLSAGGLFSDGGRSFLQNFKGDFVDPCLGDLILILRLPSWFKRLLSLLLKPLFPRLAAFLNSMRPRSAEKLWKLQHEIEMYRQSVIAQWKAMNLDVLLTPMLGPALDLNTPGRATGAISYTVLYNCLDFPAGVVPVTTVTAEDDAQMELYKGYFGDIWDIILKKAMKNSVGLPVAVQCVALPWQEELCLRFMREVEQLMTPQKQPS
The experiment in a line: Inhibitory potency of Fatty-acid amide hydrolase with rat brain membrane.

Experimental findings from ChEMBL document CHEMBL1136242, “Arachidonylsulfonyl derivatives as cannabinoid CB1 receptor and fatty acid amide hydrolase inhibitors” (Bioorg Med Chem Lett, 2003) are described below.

Chain of Cannabinoid receptor 1 (Mus musculus, UniProt P47746) (P47746 whole entry): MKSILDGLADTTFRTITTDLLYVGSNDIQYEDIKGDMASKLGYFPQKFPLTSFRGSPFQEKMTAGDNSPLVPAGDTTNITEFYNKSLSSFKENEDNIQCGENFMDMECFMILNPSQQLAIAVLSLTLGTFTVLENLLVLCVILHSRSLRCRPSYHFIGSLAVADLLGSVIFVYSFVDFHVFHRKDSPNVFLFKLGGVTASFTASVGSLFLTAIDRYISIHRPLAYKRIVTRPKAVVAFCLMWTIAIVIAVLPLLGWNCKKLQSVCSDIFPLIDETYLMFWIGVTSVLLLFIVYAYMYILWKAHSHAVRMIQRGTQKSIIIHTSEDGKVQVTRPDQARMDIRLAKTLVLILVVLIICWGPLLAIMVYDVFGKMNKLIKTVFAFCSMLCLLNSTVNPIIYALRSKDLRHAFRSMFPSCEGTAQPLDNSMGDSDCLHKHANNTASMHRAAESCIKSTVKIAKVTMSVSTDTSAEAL
Chain of Cannabinoid receptor 1 (Rattus norvegicus, UniProt P20272) (P20272 whole entry): as the sequence (P47746 whole entry) above, with D95E counted along it

In test [1], `CCCCC/C=C\C/C=C\C/C=C\C/C=C\CCCCS(=O)(=O)F` registered an IC50 of 0.11 nM.
With `CCCCC/C=C\C/C=C\C/C=C\C/C=C\CCCCS(=O)(=O)NCCO`, the values for the concentration for half-maximal inhibition (IC50) (in test [2]; at Cannabinoid receptor 1 [3]) were about 10000 nM and over 100000 nM, respectively.
Regarding `CCCCCCCCCCCCS(=O)(=O)F` [DODECANESULFONYL FLUORIDE], the figures for the IC50 (at Cannabinoid receptor 1 [4]; in test [5]; in test [1]) were 18 nM, 3 nM and 2 nM, respectively.

For orientation: IC50 means the concentration needed to halve the response being measured.
